Data: ChEMBL document CHEMBL4421719, “Modulation of k2p channels” (2016)
Active and inactive are the calls of the source. The rule behind the calls is not given here.

What was measured:
Format in all cases: cell-based
[1] = molecular target: T1, Potassium channel subfamily K member 2 (Homo sapiens, UniProt O95069); experiment: Activation of K2P2.1 (unknown origin) expressed in Xenopus oocytes assessed as effect on channel currents at -80 mV holding potential by two-electrode voltage clamp assay
T1 sequence (O95069 whole entry): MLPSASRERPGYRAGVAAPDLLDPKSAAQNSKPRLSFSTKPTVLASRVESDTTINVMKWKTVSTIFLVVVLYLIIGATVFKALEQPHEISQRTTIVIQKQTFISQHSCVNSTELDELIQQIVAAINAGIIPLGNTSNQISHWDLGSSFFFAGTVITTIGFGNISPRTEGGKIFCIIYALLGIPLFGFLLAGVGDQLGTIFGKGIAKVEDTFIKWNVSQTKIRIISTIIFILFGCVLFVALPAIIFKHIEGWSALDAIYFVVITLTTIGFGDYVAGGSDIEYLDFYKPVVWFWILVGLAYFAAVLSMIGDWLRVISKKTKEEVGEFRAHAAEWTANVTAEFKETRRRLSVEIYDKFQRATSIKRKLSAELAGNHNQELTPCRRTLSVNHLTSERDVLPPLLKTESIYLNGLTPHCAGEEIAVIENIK

[2] = test system: Potassium channel subfamily K member 2 (Homo sapiens), O95069 [UNDEFINED MUTATION]; experiment: Activation of K2P2.1 G137I mutant (unknown origin) expressed in Xenopus oocytes assessed as effect on channel currents at 50 uM at -80 mV holding potential by two-electrode voltage clamp assay
[3] = molecular target: T2, Potassium channel subfamily K member 2 (Homo sapiens) (UniProt O95069); experiment: Reversible activation of K2P2.1 (unknown origin) expressed in HEK293T cells assessed as effect on channel currents at -0 mV holding potential at 5 to 20 uM by two-electrode voltage clamp assay relative to control
T2 sequence (whole entry): T1 sequence (O95069 whole entry)

[4] = molecular target: Potassium voltage-gated channel subfamily KQT member 2 (Homo sapiens) (UniProt O43526); experiment: Activation of Kv7.2 (unknown origin) expressed in Xenopus oocytes assessed as effect on channel currents at 100 uM at -80 mV holding potential by two-electrode voltage clamp assay relative to control
Sequence of Potassium voltage-gated channel subfamily KQT member 2 (Homo sapiens) (O43526 whole entry): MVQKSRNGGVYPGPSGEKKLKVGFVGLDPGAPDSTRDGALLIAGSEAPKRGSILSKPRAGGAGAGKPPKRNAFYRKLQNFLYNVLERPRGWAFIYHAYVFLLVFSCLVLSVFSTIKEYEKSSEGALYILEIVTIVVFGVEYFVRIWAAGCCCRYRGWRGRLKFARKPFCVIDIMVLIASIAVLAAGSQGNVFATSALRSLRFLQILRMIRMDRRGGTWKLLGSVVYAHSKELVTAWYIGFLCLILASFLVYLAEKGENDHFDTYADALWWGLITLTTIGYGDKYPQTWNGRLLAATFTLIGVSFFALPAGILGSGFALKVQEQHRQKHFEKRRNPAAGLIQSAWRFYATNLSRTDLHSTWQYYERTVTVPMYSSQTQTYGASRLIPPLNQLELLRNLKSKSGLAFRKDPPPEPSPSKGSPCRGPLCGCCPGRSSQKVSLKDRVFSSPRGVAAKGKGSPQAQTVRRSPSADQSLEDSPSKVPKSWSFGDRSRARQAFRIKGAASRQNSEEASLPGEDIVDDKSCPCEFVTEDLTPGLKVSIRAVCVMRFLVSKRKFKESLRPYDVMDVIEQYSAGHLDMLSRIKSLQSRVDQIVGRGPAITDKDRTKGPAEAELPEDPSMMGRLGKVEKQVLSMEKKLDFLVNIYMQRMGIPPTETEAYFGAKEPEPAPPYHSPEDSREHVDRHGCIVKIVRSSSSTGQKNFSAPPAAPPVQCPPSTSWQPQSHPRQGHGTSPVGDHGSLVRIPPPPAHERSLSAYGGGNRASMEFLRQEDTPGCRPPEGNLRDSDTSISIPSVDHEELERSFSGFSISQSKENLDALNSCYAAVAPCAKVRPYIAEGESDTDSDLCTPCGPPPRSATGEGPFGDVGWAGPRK

[5] = molecular target: T2, Potassium channel subfamily K member 2 (Homo sapiens); experiment: Activation of K2P2.1 (unknown origin) expressed in HEK293T cells assessed as effect on channel currents at -40 mV holding potential at 100 uM by two-electrode voltage clamp assay relative to control

- EC50 [1]: 36.3 to 38.5 µM
- Activity [2]: inactive
- Activity [3]: Active
- Activity [4]: inactive
- Emax [5]: 11.4%
Compound: CC1(C)c2cc(Cl)ccc2N(CCc2nnn[nH]2)c2ccc(Cl)cc21
